# Measured values as given in patent publication US8211606B2, “Coloring compound, yellow toner, sheet for heat-sensitive transfer recording, and ink” (Canon Kabushiki Kaisha, priority 2007, dated 2012).
# Assays:
# [1] = Solubility check: solubility of coloring compound in chloroform at room temperature; assay type: physicochemical
# Description: A solubility test was performed to measure the solubility of a coloring compound in chloroform at room temperature. The solubility was evaluated as described below.
# A: 5% or more solubility in chloroform
# B: 1% or more and less than 5% solubility in chloroform
# C: less than 1% solubility in chloroform
# A solubility of 1% or more in chloroform was determined to indicate high compatibility with resin.
# [2] = Light resistance evaluation of coloring compound on paper, Sun Tester irradiation (color difference ΔE); assay type: physicochemical; details: 765 w/m^2, 50° C., irradiation time 20 hours, on CLC color copy paper
# Description: A coloring compound was dissolved in tetrahydrofuran/cyclohexanone (=1/1 (v/v)) to prepare a 0.04 mol/L solution, which was then filtered with a filter (Φ0.2 μm). The prepared coloring compound solution was applied on CLC color copy paper (manufactured by Canon Inc.) by a bar coat method (Bar No. 3) and air-dried overnight. The test paper was then subjected to an irradiation experiment using Sun Tester (XF-180CPS, manufactured by Shimadzu Corporation) under the conditions of an illuminance of 765 w/m^2, a temperature of 50° C. and an irradiation time of 20 hours. The test paper before and after irradiation was analyzed by means of SpectroLino (from Gretag Machbeth). Optical density and chromaticity (L*, a*, b*) were determined on the basis of the L*a*b* color system. Color difference (ΔE) was calculated according to the following equation on the basis of measurements of the color characteristics.
# The evaluation was performed as below.
# A: The ΔE value is less than 10.
# B: The ΔE value is 10 or more and less than 20.
# C: The ΔE value is 20 or more.
# The ΔE value of less than 20 was determined to indicate good light resistance.
Light Resistance [2],Structure (SMILES),Solubility [1]
C (The ΔE value is 20 or more.),"CCn1c(O)c(/N=N/c2ccccc2[N+](=O)[O-])c(C)c(C(N)=O)c1=O [(2), reference compound]",C (less than 1% solubility in chloroform)
A (The ΔE value is less than 10.),CCCCC(CC)Cn1c(O)c(N=Nc2c(Br)cc(C(F)(F)F)cc2[N+](=O)[O-])c(C)c(C(N)=O)c1=O (stereo not shown) [(10)],B (1% or more and less than 5% solubility in chloroform)
A (The ΔE value is less than 10.),CCCCC(CC)Cn1c(O)c(N=Nc2ccc(C#N)cc2[N+](=O)[O-])c(C)c(C(N)=O)c1=O (stereo not shown) [(11)],A (5% or more solubility in chloroform)
A (The ΔE value is less than 10.),CCCCC(CC)Cn1c(O)c(N=Nc2ccc(C(F)(F)F)cc2[N+](=O)[O-])c(C)c(C(N)=O)c1=O (stereo not shown) [(12)],A (5% or more solubility in chloroform)
A (The ΔE value is less than 10.),CCCCC(C)(CC)NC(=O)c1c(C)c(N=Nc2ccc(C(F)(F)F)cc2[N+](=O)[O-])c(O)[nH]c1=O (stereo not shown) [(14)],B (1% or more and less than 5% solubility in chloroform)
A (The ΔE value is less than 10.),Cc1c(N=Nc2ccccc2[N+](=O)[O-])c(O)n(-c2ccccc2)c(=O)c1C(N)=O [(15)],B (1% or more and less than 5% solubility in chloroform)
A (The ΔE value is less than 10.),Cc1c(N=Nc2ccccc2[N+](=O)[O-])c(O)n(Cc2ccccc2)c(=O)c1C(N)=O [(16)],B (1% or more and less than 5% solubility in chloroform)
C (The ΔE value is 20 or more.),"CCCCC(CC)Cn1c(O)c(/N=N/c2ccccc2[N+](=O)[O-])c(C)c(C#N)c1=O (stereo not shown) [Comparative Compound (1), reference compound]",B (1% or more and less than 5% solubility in chloroform)
A (The ΔE value is less than 10.),CCCCC(CC)Cn1c(O)c(/N=N/c2ccccc2[N+](=O)[O-])c(C)c(C(N)=O)c1=O (stereo not shown) [Compound (4)],B (1% or more and less than 5% solubility in chloroform)
A (The ΔE value is less than 10.),CCCCC(CC)Cn1c(O)c(/N=N/c2ccc(C(F)(F)F)cc2[N+](=O)[O-])c(C)c(C(=O)NC(C)(C)C)c1=O (stereo not shown) [Compound (5)],A (5% or more solubility in chloroform)
A (The ΔE value is less than 10.),CCCCC(CC)Cn1c(O)c(/N=N/c2ccc(F)cc2[N+](=O)[O-])c(C)c(C(N)=O)c1=O (stereo not shown) [Compound (6)],B (1% or more and less than 5% solubility in chloroform)

Structure (SMILES),Light Resistance [2],Solubility [1]
CCCCC(CC)Cn1c(O)c(N=Nc2cc(F)c(F)cc2[N+](=O)[O-])c(C)c(C(N)=O)c1=O (stereo not shown) [(7)],B (The ΔE value is 10 or more and less than 20.),A (5% or more solubility in chloroform)
CCCCC(CC)Cn1c(O)c(N=Nc2c([N+](=O)[O-])cc(F)c(F)c2F)c(C)c(C(N)=O)c1=O (stereo not shown) [(8)],B (The ΔE value is 10 or more and less than 20.),A (5% or more solubility in chloroform)
CCCCC(CC)Cn1c(O)c(N=Nc2c([N+](=O)[O-])cc(C(F)(F)F)cc2[N+](=O)[O-])c(C)c(C(N)=O)c1=O (stereo not shown) [(9)],B (The ΔE value is 10 or more and less than 20.),B (1% or more and less than 5% solubility in chloroform)
CCn1c(O)c(N=Nc2ccc(C(F)(F)F)cc2[N+](=O)[O-])c(-c2ccccc2)c(C(=O)NC(C)(C)C)c1=O [(13)],B (The ΔE value is 10 or more and less than 20.),A (5% or more solubility in chloroform)
CCCCC(CC)Cn1c(O)c(N=Nc2ccccc2[N+](=O)[O-])c(C)c(C(=O)NC2CCCC2)c1=O (stereo not shown) [(17)],B (The ΔE value is 10 or more and less than 20.),A (5% or more solubility in chloroform)
CCCCC(CC)Cn1c(O)c(N=Nc2ccc(C(F)(F)F)cc2[N+](=O)[O-])c(C)c(C(=O)NCc2ccccc2)c1=O (stereo not shown) [(18)],B (The ΔE value is 10 or more and less than 20.),A (5% or more solubility in chloroform)
